Data on 27 molecules can be found in ChEMBL document CHEMBL1123701, “Synthesis and quantitative structure-activity relationship analysis of N-triiodoallyl- and N-iodopropargylazoles. New antifungal agents” (1987).

One assay deals with Aspergillus fumigatus. Description: Antifungal activity against Aspergillus fumigatus Saito strain. It is filed as functional.
For another assay, the system named is Candida albicans. Description: Antifungal activity against Candida albicans C-A-24 strain. Format: functional.
A further assay has as its system Cryptococcus neoformans. Description: Antifungal activity against Cryptococcus neoformans Cr-1 strain. It is filed as functional.
The test system of assay [1] is Trichophyton interdigitale. Description: Antifungal activity towards Trichophyton interdigitale. It is filed as functional.
A further assay concerns Trichophyton benhamiae. Description: Antifungal activity towards Trichophyton mentagrophytes 530324 strain. It is filed as functional, Arthroderma benhamiae.

Converted amounts (≈) assume the structure as drawn.

With `N#Cc1ccc(-c2nnn(CC#CI)n2)cc1`, the MIC (as a rule, the lowest concentration that inhibits growth of the organism) with Aspergillus fumigatus turned out to be 6.25 µg/mL (≈ 18.7 µM); against Candida albicans, 50 µg/mL (≈ 149 µM); in the assay with Cryptococcus neoformans, 50 µg/mL (≈ 149 µM); in assay [1], 1.56 µg/mL (≈ 4.66 µM); against Trichophyton benhamiae, 3.13 µg/mL (≈ 9.34 µM).
`FC(F)(F)c1cccc(-c2nnn(CC#CI)n2)c1`: the MIC against Aspergillus fumigatus is 3.13 µg/mL (≈ 8.28 µM); in the assay on Candida albicans it was 3.13 µg/mL (≈ 8.28 µM); in the assay with Cryptococcus neoformans, 1.56 µg/mL (≈ 4.13 µM); in assay [1], 0.1 µg/mL (≈ 0.264 µM); with Trichophyton benhamiae, 0.1 µg/mL (≈ 0.264 µM).
In the case of `CCCCCCCc1nnnn1CC#CI`, the MIC was determined as 0.78 µg/mL (≈ 2.35 µM) in the assay with Aspergillus fumigatus; 6.25 µg/mL (≈ 18.8 µM) in the assay on Candida albicans; 1.56 µg/mL (≈ 4.7 µM) in the assay with Cryptococcus neoformans; 0.1 µg/mL (≈ 0.301 µM) in assay [1]; 0.2 µg/mL (≈ 0.602 µM) against Trichophyton benhamiae.
Consider `IC#CCn1nccn1`, for which the MIC with Aspergillus fumigatus is 0.78 µg/mL (≈ 3.35 µM); with Candida albicans it was 1.56 µg/mL (≈ 6.69 µM); against Cryptococcus neoformans, 1.56 µg/mL (≈ 6.69 µM); in assay [1] it was 0.78 µg/mL (≈ 3.35 µM); against Trichophyton benhamiae it was 0.39 µg/mL (≈ 1.67 µM).
Consider `CCCCCc1nnn(CC#CI)n1`, for which the minimum inhibitory concentration (MIC) was 0.78 µg/mL (≈ 2.56 µM) against Aspergillus fumigatus, 0.1 µg/mL (≈ 0.329 µM) in assay [1] and 0.1 µg/mL (≈ 0.329 µM) in the assay on Trichophyton benhamiae.
As for `O=[N+]([O-])c1c(Cl)c(Cl)n(CC#CI)c1Cc1cc(Cl)cc(Cl)c1O`, the MIC was 12.5 µg/mL (≈ 24 µM) in the assay with Aspergillus fumigatus; 25 µg/mL (≈ 48.1 µM) with Candida albicans; 3.13 µg/mL (≈ 6.02 µM) in the assay with Cryptococcus neoformans; 3.13 µg/mL (≈ 6.02 µM) in assay [1]; 3.13 µg/mL (≈ 6.02 µM) against Trichophyton benhamiae.
In the case of `IC#CCn1nnc(C2CC2)n1`, the minimal inhibitory concentration (MIC) in the assay with Aspergillus fumigatus was found to be 0.39 µg/mL (≈ 1.42 µM); against Candida albicans it was 1.56 µg/mL (≈ 5.69 µM); against Cryptococcus neoformans it was 1.56 µg/mL (≈ 5.69 µM); in assay [1] it was 0.78 µg/mL (≈ 2.85 µM); with Trichophyton benhamiae it was 0.39 µg/mL (≈ 1.42 µM).
Take `CCCc1nnnn1CC(I)=C(I)I`: the minimal inhibitory concentration (MIC) (in assay [1]; against Trichophyton benhamiae) was 0.1 µg/mL (≈ 0.189 µM) in each case.
For `Cc1cc(C)n(CC#CI)n1`, the MIC against Aspergillus fumigatus is 0.78 µg/mL (≈ 3 µM); with Candida albicans, 6.25 µg/mL (≈ 24 µM); against Cryptococcus neoformans it was 3.13 µg/mL (≈ 12 µM); in assay [1], 0.78 µg/mL (≈ 3 µM); against Trichophyton benhamiae it was 0.78 µg/mL (≈ 3 µM).
Turning to `Cc1nnnn1CC#CI`, the MIC against Aspergillus fumigatus turned out to be 6.25 µg/mL (≈ 25.2 µM); in the assay with Candida albicans it was 6.25 µg/mL (≈ 25.2 µM); in the assay on Cryptococcus neoformans, 3.13 µg/mL (≈ 12.6 µM); in assay [1], 3.13 µg/mL (≈ 12.6 µM); in the assay on Trichophyton benhamiae, 3.13 µg/mL (≈ 12.6 µM).
With `CC(=O)c1cccn1CC(I)=C(I)I`, the minimal inhibitory concentration (MIC) is 12.5 µg/mL (≈ 23.7 µM) against Aspergillus fumigatus; 12.5 µg/mL (≈ 23.7 µM) in the assay on Candida albicans; > 25 µg/mL in the assay with Cryptococcus neoformans; 0.39 µg/mL (≈ 0.74 µM) in assay [1]; 1.56 µg/mL (≈ 2.96 µM) against Trichophyton benhamiae.
As to `CCCCCc1nnn(CC(I)=C(I)I)n1`, the MIC in assay [1] is 0.2 µg/mL (≈ 0.358 µM); against Trichophyton benhamiae it was 0.1 µg/mL (≈ 0.179 µM).
With `CCc1nnnn1CC(I)=C(I)I`, the MIC with Aspergillus fumigatus was 25 µg/mL (≈ 48.5 µM); in the assay with Candida albicans, > 25 µg/mL; against Cryptococcus neoformans it was > 25 µg/mL; in assay [1], 3.13 µg/mL (≈ 6.07 µM); against Trichophyton benhamiae, 1.56 µg/mL (≈ 3.02 µM).
Turning to `CCOC(=O)c1cn(CC(I)=C(I)I)c(Cl)c1Cl`, the minimal inhibitory concentration (MIC) worked out at 25 µg/mL (≈ 39.9 µM) with Aspergillus fumigatus; 25 µg/mL (≈ 39.9 µM) with Candida albicans; 25 µg/mL (≈ 39.9 µM) in the assay with Cryptococcus neoformans; 3.13 µg/mL (≈ 5 µM) in assay [1]; 3.13 µg/mL (≈ 5 µM) against Trichophyton benhamiae.
Take `Cc1ccc(-c2nnn(CC(I)=C(I)I)n2)cc1`: the minimum inhibitory concentration (MIC) (against Aspergillus fumigatus; against Candida albicans; with Cryptococcus neoformans; in assay [1]; in the assay on Trichophyton benhamiae) was > 100 µg/mL each time.
On to `CCCCCCCc1nnn(CC(I)=C(I)I)n1`, for which the figures for the MIC against Candida albicans and against Trichophyton benhamiae were 12.5 µg/mL (≈ 21.3 µM) and 0.78 µg/mL (≈ 1.33 µM), respectively.
For `CCc1nnn(CC(I)=C(I)I)n1`, the MIC with Aspergillus fumigatus was 0.2 µg/mL (≈ 0.388 µM); in the assay on Candida albicans it was 0.78 µg/mL (≈ 1.51 µM); in the assay with Cryptococcus neoformans, 0.78 µg/mL (≈ 1.51 µM); in assay [1] it was 0.1 µg/mL (≈ 0.194 µM); in the assay on Trichophyton benhamiae, 0.2 µg/mL (≈ 0.388 µM).
Regarding `O=[N+]([O-])c1ncnn1CC(I)=C(I)I`, the minimal inhibitory concentration (MIC) against Aspergillus fumigatus is 0.39 µg/mL (≈ 0.733 µM); with Candida albicans, 12.5 µg/mL (≈ 23.5 µM); in the assay on Cryptococcus neoformans, 0.78 µg/mL (≈ 1.47 µM); in assay [1] it was 0.2 µg/mL (≈ 0.376 µM); against Trichophyton benhamiae, 0.39 µg/mL (≈ 0.733 µM).
On to `CC(C)(C)c1nnn(CC(I)=C(I)I)n1`, for which the MIC against Candida albicans is > 25 µg/mL; against Cryptococcus neoformans it was > 25 µg/mL; in the assay with Trichophyton benhamiae, 0.39 µg/mL (≈ 0.717 µM).
Take `COc1ccc(-c2nnn(CC#CI)n2)cc1`: the MIC against Cryptococcus neoformans was found to be 25 µg/mL (≈ 73.5 µM); in assay [1], 0.1 µg/mL (≈ 0.294 µM); in the assay on Trichophyton benhamiae it was 0.1 µg/mL (≈ 0.294 µM).
As for `IC(I)=C(I)Cn1nnnc1Cc1ccccc1`, the MIC in the assay on Aspergillus fumigatus was 25 µg/mL (≈ 43.3 µM); in the assay with Candida albicans it was > 25 µg/mL; in the assay with Cryptococcus neoformans, > 25 µg/mL; in assay [1], 0.1 µg/mL (≈ 0.173 µM); against Trichophyton benhamiae, 0.1 µg/mL (≈ 0.173 µM).
On to `IC#CCn1nnc(-c2ccc(C3N=NN=N3)cc2)n1`, for which the minimal inhibitory concentration (MIC) against Aspergillus fumigatus is > 100 µg/mL; with Candida albicans it was > 100 µg/mL; against Cryptococcus neoformans, > 100 µg/mL; in assay [1], 1.56 µg/mL (≈ 4.13 µM); against Trichophyton benhamiae, 1.56 µg/mL (≈ 4.13 µM).
As to `CCCc1nnn(CC#CI)n1`, the minimal inhibitory concentration (MIC) (with Aspergillus fumigatus; in assay [1]; in the assay on Trichophyton benhamiae) was 0.1 µg/mL (≈ 0.362 µM) in each case.
Take `Clc1ccc(-c2nnn(CC#CI)n2)cc1`: the MIC in assay [1] is 0.2 µg/mL (≈ 0.58 µM); in the assay on Trichophyton benhamiae, 0.1 µg/mL (≈ 0.29 µM).
Consider `Fc1ccc(-c2nnn(CC#CI)n2)cc1`, for which the MIC against Aspergillus fumigatus is 0.2 µg/mL (≈ 0.61 µM); against Candida albicans, 0.78 µg/mL (≈ 2.38 µM); in the assay with Cryptococcus neoformans it was 0.78 µg/mL (≈ 2.38 µM); in assay [1] it was 0.1 µg/mL (≈ 0.305 µM); in the assay on Trichophyton benhamiae, 0.1 µg/mL (≈ 0.305 µM).
In the case of `CC(C)c1nnnn1CC(I)=C(I)I`, the MIC against Trichophyton benhamiae stood at 3.13 µg/mL (≈ 5.91 µM).
Turning to `CCCc1nnn(CC(I)=C(I)I)n1`, the minimum inhibitory concentration (MIC) (in assay [1]; in the assay on Trichophyton benhamiae) was 0.1 µg/mL (≈ 0.189 µM) in each case.
